Experimental data: patent US10161932B2, “Azetidine-substituted fluorescent compounds” (HOWARD HUGHES MEDICAL INSTITUTE, priority 2014, dated 2018)
Structures can show the parent of a compound that is named as a salt. Where two headings read alike, the source gives them in different places.

Assays:
[1] = Absorption and fluorescence spectroscopy of dyes; format: physicochemical
Procedure: Phosphate buffered saline (PBS) was at pH 7.4 unless otherwise noted.
Spectroscopy was performed using 1-cm path length, 3.5-mL quartz cuvettes from Starna Cells or 1-cm path length, 1.0-mL quartz microcuvettes from Hellma. All measurements were taken at ambient temperature (22±2° C.) in 10 mM HEPES, pH 7.3 buffer unless otherwise noted. Absorption spectra were recorded on a Cary Model 100 spectrometer (Varian); reported values for extinction coefficients (ε) are averages (n=3). Fluorescence spectra were recorded on a Cary Eclipse fluorometer (Varian). Normalized spectra are shown for clarity.

[2] = Quantum yield measurement (Quantaurus-QY spectrometer); format: physicochemical; settings: for increase in quantum yield / brightness relative to parent N,N-dialkyl dye: azetidine-substituted vs parent fluorophore
Procedure: All reported quantum yield values were measured in under identical conditions using a Quantaurus-QY spectrometer (C11374, Hamamatsu). Measurements were carried out using dilute samples (A<0.1) and self-absorption corrections were performed using the instrument software. Reported values are averages (n=3).

[3] = Fluorescence lifetime measurement; settings: for τ: Table 2, 10 mM HEPES pH 7.3 per table footnote
Procedure: For fluorescence lifetime measurements, a pulse picker (Model 350-160, ConOptics) was placed in the laser beam to reduce the pulse frequency from 80 MHz to 20 MHz. Samples (2 μM dye diluted in 50 mM HEPES, pH 7.2, H2O, or CH3OH) were excited at 830 nm laser wavelength and 6 mW laser power. The emitted light was collected by the fast-timing APD and fed to the single-photon counting board (TimeHarp200; PicoQuant). Timing pulses were obtained from a PIN diode (DET01CFC; ThorLabs) monitoring the 20 MHz pulse train. The temporal impulse response of the system was determined by second harmonic generation of laser pulses using a thin nonlinear crystal in place of a dye sample. The lifetime decay data was fit to a single exponential decay function using a custom MATLAB program.

[4] = Table 1, trifluoroethanol containing 0.1% (v/v) trifluoroacetic acid

ε ([1]; Table 1, 10 mM HEPES pH 7.3)	λem ([1]; Table 1, 10 mM HEPES pH 7.3)	λmax ([1]; Table 1, 10 mM HEPES pH 7.3)	ϕ ([2]; Table 1, 10 mM HEPES pH 7.3)	SMILES	ε (extinction coefficient) ([1]; aqueous buffer)	ϕ (quantum yield) ([2]; aqueous buffer)	ε ([1]; Table 3, 10 mM HEPES pH 7.3)	λem ([1]; Table 3, 10 mM HEPES pH 7.3)	λmax ([1]; Table 3, 10 mM HEPES pH 7.3)	ϕ ([2]; Table 3, 10 mM HEPES pH 7.3)	also measured
109,000 M^−1 cm^−1	564 nm	541 nm	0.88	COC1CN(c2ccc3c(-c4ccccc4C(=O)[O-])c4ccc(=[N+]5CC(OC)C5)cc-4oc3c2)C1 (stereo not shown) [Example 11, 2-(3,6-Bis(3-methoxyazetidin-1-yl)xanthylium-9-yl)benzoate]	–	–	–	–	–	–	–
94,000 M^−1 cm^−1	549 nm	525 nm	0.91	O=C([O-])c1ccccc1-c1c2ccc(=[N+]3CC(F)(F)C3)cc-2oc2cc(N3CC(F)(F)C3)ccc12 [Example 9, 2-(3,6-Bis(3,3-difluoroazetidin-1-yl)xanthylium-9-yl)benzoate]	–	–	–	–	–	–	–
–	–	–	–	CN(C)c1ccc2c(-c3ccccc3C(=O)[O-])c3ccc(N(C)C)cc3[o+]c2c1 [TMR, tetramethylrhodamine, reference compound]	78000 M⁻¹ cm⁻¹	0.41	–	–	–	–	ε ([1]; Table 2, 10 mM HEPES pH 7.3): 78,000 M^−1 cm^−1; λem ([1]; Table 2, 10 mM HEPES pH 7.3): 572 nm; λmax ([1]; Table 2, 10 mM HEPES pH 7.3): 548 nm; ϕ ([2]; pH 7.3): 0.41; τ (fluorescence lifetime) [3]: 2.2 ns; τ [3]: 2.21 ns
–	–	–	–	O=C1OC2(c3ccc(N4CCCCC4)cc3Oc3cc(N4CCCCC4)ccc32)c2ccccc21 [piperidine derivative, reference compound]	–	–	–	–	–	–	ε ([1]; Table 2, 10 mM HEPES pH 7.3): 80,000 M^−1 cm^−1; λem ([1]; Table 2, 10 mM HEPES pH 7.3): 586 nm; λmax ([1]; Table 2, 10 mM HEPES pH 7.3): 560 nm; ϕ (quantum yield) [2]: 0.10; ϕ ([2]; pH 7.3): 0.10; τ (fluorescence lifetime) [3]: 0.6 ns; τ [3]: 0.59 ns
–	–	–	–	O=C(O)c1cc2ccc(N3CCC3)cc2oc1=O [Example 51, 7-(Azetidin-1-yl)-2-oxo-2H-chromene-3-carboxylic acid]	24000 M⁻¹ cm⁻¹	0.84	24,000 M^−1 cm^−1	470 nm	387 nm	0.84	increase in quantum yield / brightness relative to parent N,N-dialkyl dye [2]: ~30 fold
–	–	–	–	CN(C)c1ccc2cc3ccc(N(C)C)cc3nc2c1 [Acridine Orange, reference compound]	–	0.21	50,000 M^−1 cm^−1	528 nm	493 nm	0.21	–
111,000 M^−1 cm^−1	565 nm	542 nm	0.57	CN(C)C1CN(c2ccc3c(-c4ccccc4C(=O)[O-])c4ccc(N5CC(N(C)C)C5)cc4[o+]c3c2)C1 [Example 13, 2-(3,6-Bis(3-(dimethylamino)azetidin-1-yl)xanthylium-9-yl)benzoate]	–	–	–	–	–	–	–
–	–	–	–	c1cc2cc3ccc(N4CCC4)cc3nc2cc1N1CCC1 [Example 60, 3,6-Di(azetidin-1-yl)acridine]	–	0.52	47,000 M^−1 cm^−1	531 nm	492 nm	0.52	increase in quantum yield / brightness relative to parent N,N-dialkyl dye [2]: 2.5 fold
–	–	–	–	Cc1cc(=O)oc2cc(N(C)C)ccc12 [Coumarin 461, reference compound]	18000 M⁻¹ cm⁻¹	–	18,000 M^−1 cm^−1	470 nm	372 nm	–	ϕ (quantum yield) [2]: 0.19; ϕ ([2]; pH 7.3): 0.19
–	–	–	–	Cc1cc(=O)oc2cc(N3CCC3)ccc12 [Example 49, 7-(Azetidin-1-yl)-4-methyl-2H-chromen-2-one]	15000 M⁻¹ cm⁻¹	0.96	15,000 M^−1 cm^−1	467 nm	354 nm	0.96	increase in quantum yield / brightness relative to parent N,N-dialkyl dye [2]: five-fold
111,000 M^−1 cm^−1	572 nm	549 nm	0.87	O=C(O)CC1CN(c2ccc3c(-c4ccccc4C(=O)[O-])c4ccc(=[N+]5CC(CC(=O)O)C5)cc-4oc3c2)C1 (stereo not shown) [Example 17, 2-(3,6-Bis(3-(carboxymethyl)azetidin-1-yl)xanthylium-9-yl)benzoate]	–	–	–	–	–	–	–
110,000 M^−1 cm^−1	572 nm	550 nm	0.83	CC1(C)CN(c2ccc3c(-c4ccccc4C(=O)[O-])c4ccc(=[N+]5CC(C)(C)C5)cc-4oc3c2)C1 [Example 8, 2-(3,6-Bis(3,3-dimethylazetidin-1-yl)xanthylium-9-yl)benzoate]	–	–	–	–	–	–	–
108,000 M^−1 cm^−1	568 nm	545 nm	0.87	O=C([O-])c1ccccc1-c1c2ccc(=[N+]3CC(C(=O)O)C3)cc-2oc2cc(N3CC(C(=O)O)C3)ccc12 (stereo not shown) [Example 16, 2-(3,6-Bis(3-carboxyazetidin-1-yl)xanthylium-9-yl)benzoate]	–	–	–	–	–	–	–
113,000 M^−1 cm^−1	560 nm	536 nm	0.87	O=C([O-])c1ccccc1-c1c2ccc(=[N+]3CC(F)C3)cc-2oc2cc(N3CC(F)C3)ccc12 (stereo not shown) [Example 10, 2-(3,6-Bis(3-fluoroazetidin-1-yl)xanthylium-9-yl)benzoate]	–	–	–	–	–	–	–
–	–	–	–	CCN(CC)c1ccc2nc3ccc(=[N+](CC)CC)cc-3oc2c1.[O-][Cl+3]([O-])([O-])[O-] [Oxazine 1, reference compound]	111000 M⁻¹ cm⁻¹	0.07	111,000 M^−1 cm^−1	669 nm	655 nm	0.07	–
–	609 nm	585 nm	0.78	CC1(C)C2=CC(=[N+]3CC(F)(F)C3)C=CC2=C(c2ccccc2C(=O)[O-])c2ccc(N3CC(F)(F)C3)cc21 [Example 41, 2-(3,6-Bis(3,3-difluoroazetidin-1-yl)-10,10-dimethylanthracen-9-ylium-9(10H)-yl)benzoate]	–	–	–	–	–	–	ε [1, 4]: 156,000^a M^−1 cm^−1
–	–	–	–	CN(C)c1ccc2c(c1)Oc1cc(O)ccc1C21OC(=O)c2ccccc21 (stereo not shown) [dimethyl rhodol, reference compound]	60000 M⁻¹ cm⁻¹	–	60,000 M^−1 cm^−1	546 nm	518 nm	–	ϕ (quantum yield) [2]: 0.21; ϕ ([2]; pH 7.3): 0.21
–	–	–	–	c1cc2nc3ccc(=[N+]4CCC4)cc-3oc2cc1N1CCC1 [Example 61, 3,7-Di(azetidin-1-yl)phenoxazin-5-ium trifluoroacetate]	99000 M⁻¹ cm⁻¹	0.24	99,000 M^−1 cm^−1	661 nm	647 nm	0.24	increase in quantum yield / brightness relative to parent N,N-dialkyl dye [2]: 3.4 fold
–	–	–	–	O=C(O)c1ccccc1-c1c2ccc(=O)cc-2oc2cc(N3CCC3)ccc12 [Example 59, 2-(6-(Azetidin-1-yl)-3-oxo-3H-xanthen-9-yl)benzoic acid]	–	0.85	59,000 M^−1 cm^−1	546 nm	519 nm	0.85	increase in quantum yield / brightness relative to parent N,N-dialkyl dye [2]: 4 fold
108,000 M^−1 cm^−1	557 nm	533 nm	0.89	N#CC1CN(c2ccc3c(-c4ccccc4C(=O)[O-])c4ccc(=[N+]5CC(C#N)C5)cc-4oc3c2)C1 (stereo not shown) [Example 12, 2-(3,6-Bis(3-cyanoazetidin-1-yl)xanthylium-9-yl)benzoate]	–	–	–	–	–	–	–

SMILES	ε ([1]; Table 1, 10 mM HEPES pH 7.3)	λem ([1]; Table 1, 10 mM HEPES pH 7.3)	λmax ([1]; Table 1, 10 mM HEPES pH 7.3)	ϕ ([2]; Table 1, 10 mM HEPES pH 7.3)	ε (extinction coefficient) ([1]; aqueous buffer)	ϕ (quantum yield) ([2]; aqueous buffer)	ε ([1]; Table 3, 10 mM HEPES pH 7.3)	λem ([1]; Table 3, 10 mM HEPES pH 7.3)	λmax ([1]; Table 3, 10 mM HEPES pH 7.3)	ϕ ([2]; Table 3, 10 mM HEPES pH 7.3)	also measured
C[Si]1(C)C2=CC(=[N+]3CCC3)C=CC2=C(c2ccccc2C(=O)[O-])c2ccc(N3CCC3)cc21 [Example 30, 2-(3,7-Di(azetidin-1-yl)-5,5-dimethyldibenzo[b,e]silin-10-ylium-10(5H)-yl)benzoate]	–	664 nm	646 nm	0.54	–	0.54	–	664 nm	646 nm	0.54	ε ([1]; Table 1, ethanol containing 0.1% (v/v) trifluoroacetic acid): 152,000^b M^−1 cm^−1; ε ([1]; Table 3, ethanol containing 0.1% v/v trifluoroacetic acid): 152,000^a M^−1 cm^−1; ε (extinction coefficient) ([1]; acidic ethanol): 152000 M⁻¹ cm⁻¹; λmax ([1]; text b257, unit not given): 646
C[Si]1(C)C2=CC(=[N+]3CC(F)C3)C=CC2=C(c2ccccc2C(=O)[O-])c2ccc(N3CC(F)C3)cc21 (stereo not shown) [Example 31, 2-(3,7-Bis(3-fluoroazetidin-1-yl)-5,5-dimethyldibenzo[b,e]silin-10-ylium-10(5H)-yl)benzoate]	–	652 nm	635 nm	0.56	–	–	–	–	–	–	ε [1, 4]: 167,000^a M^−1 cm^−1
CC1(C)C2=CC(=[N+]3CCC3)C=CC2=C(c2ccccc2C(=O)[O-])c2ccc(N3CCC3)cc21 [Example 40, 2-(3,6-Di(azetidin-1-yl)-10,10-dimethylanthracen-9-ylium-9(10H)-yl)benzoate]	99,000 M^−1 cm^−1	631 nm	608 nm	0.67	99000 M⁻¹ cm⁻¹	0.67	99,000 M^−1 cm^−1	631 nm	608 nm	0.67	–
O=C([O-])c1ccccc1-c1c2ccc(=[N+]3CCC3)cc-2oc2cc(N3CCC3)ccc12 [Example 7, 2-(3,6-Di(azetidin-1-yl)xanthylium-9-yl)benzoate]	101,000 M^−1 cm^−1	571 nm	549 nm	0.88	–	0.88	–	–	–	–	ε ([1]; Table 2, 10 mM HEPES pH 7.3): 101,000 M^−1 cm^−1; λem ([1]; Table 2, 10 mM HEPES pH 7.3): 571 nm; λmax ([1]; Table 2, 10 mM HEPES pH 7.3): 549 nm; higher extinction coefficient than the other dyes ([1]; rhodamines of Table 2): ~30%; ϕ ([2]; Table 2, 10 mM HEPES pH 7.3): 0.88; brighter than the pyrrolidine derivative ([2]; one-photon excitation): 60%; τ (fluorescence lifetime) [3]: 3.8 ns; τ [3]: 3.84 ns
